Experimental data reported in patent US20140045806A1 (priority 2012, published 2014).
Marks after values point to notes of the source that are not given here.

System: postmenopausal women
Assay: ERC-210 phase III trial, MENQOL questionnaire (sexual domain and summary score)
Type: in vivo
Conditions: for MENQOL sexual domain, average percentage of change from baseline, percentages of the three DHEA doses combined: 12 weeks; for MENQOL Avoiding intimacy, average % change from baseline to Week 12 in severity score over placebo / MENQOL Sexual desire, average % change from baseline to Week 12 in severity score over placebo / MENQOL Vaginal dryness at sexual activity, average % change from baseline to Week 12 in severity score over placebo: average of the 3 DHEA doses
Excerpt: The example below is intended only to illustrate a particular embodiment of the present invention and is not meant to limit the scope of the invention in any manner. This study (ERC-210) is a phase III, prospective, multicentre, randomized, placebo-controlled, and double-blind trial. […] The DHEA ovules or suppositories (Vaginorm™) containing prasterone in a lipophilic base were manufactured by Recipharm, Karlskoga, Sweden. The study was divided into two phases, namely screening followed by a treatment period of 12 weeks. The protocol was approved by the Institutional Review Board of the Centre Hospitalier de I'Université Laval (Quebec City, Canada), McGill University (Montreal, Canada), Ethica (Montreal, Canada), Eastern Virginia Medical School (Norfolk, Va., USA) and the Western Institutional Review Board (Los Angeles, USA).
The inclusion and exclusion criteria were as described in (Labrie, Archer et al. 2009b). A written informed consent was obtained from all subjects prior to the performance of any study-related procedure. […] A partial gynecological examination was performed to evaluate the aspect of the mucosa and tolerance to the medication on day 1 and at all visits. The standard laboratory tests, namely hematology (including complete blood count and coagulation), blood chemistry and urinalysis were performed at screening, day 1 and at all visits. Summary tabulations were prepared displaying the number of observations, mean or geometric mean as appropriate, SD; SEM, 95% two-sided CI; median, minimum, and maximum for continuous variables; and the number and percentage per category for categorical data. Statistical analyses were performed at the two-sided significance level of 0.05 unless otherwise stated. […] The endpoints for analysis consisted of the following: desire/interest, arousal and orgasm were self-rated by the women at screening, at day 1, and at week 4, 8 and 12 using the ASF and MENQOL questionnaires. Baseline was defined as the value on day 1, obtained before first use of the study treatment, and change from baseline to week 12 was calculated for each participant for each domain endpoint. The analysis comparing each dose of DHEA to placebo was performed by analysis of covariance, with the baseline value used as the covariate. Missing values were replaced by the last observation made.
The three questions covered by the sexual domain of the MENQOL questionnaire are change in sexual desire, intimacy avoidance and vaginal dryness during sexual activity. In our previous publication (Labrie, Archer et al. 2009a), only women having a score value at baseline and week 12 were used in the calculations while the present evaluation carries forward the last value obtained after baseline when data at week 12 are missing. […] Since the number of women is as low as 12 in some groups for some parameters after the distribution is made between women with and without MS, the calculations have also been performed with the combination of the three prasterone doses, although the number of women remains low in the corresponding placebo group.

[1] = 0.25% DHEA intravaginal daily 12 weeks, MS pain at sexual activity at baseline
[2] = 0.5% DHEA intravaginal daily 12 weeks, MS pain at sexual activity at baseline
[3] = 0.5% DHEA intravaginal daily 12 weeks, all subjects (ITT)
[4] = 1.0% DHEA intravaginal daily 12 weeks, no MS pain at sexual activity at baseline
[5] = Pool 3 Doses DHEA intravaginal daily 12 weeks, MS pain at sexual activity at baseline
[6] = Pool 3 Doses DHEA intravaginal daily 12 weeks, MS pain at sexual activity at baseline, listed as prasterone
[7] = Pool 3 Doses DHEA intravaginal daily 12 weeks, all subjects (ITT)
[8] = Pool 3 Doses DHEA intravaginal daily 12 weeks, all subjects (ITT), listed as prasterone
[9] = Pool 3 Doses DHEA intravaginal daily 12 weeks, no MS pain at sexual activity at baseline
[10] = Pool 3 Doses DHEA intravaginal daily 12 weeks, no MS pain at sexual activity at baseline, listed as prasterone

SMILES: C[C@]12CC[C@H](O)CC1=CC[C@@H]1[C@@H]2CC[C@]2(C)C(=O)CC[C@@H]12 [DHEA, (3β)-3-Hydroxyandrost-5-en-17-one]
- MENQOL Avoiding intimacy (Q 29) severity score, average % change from baseline to Week 12 (decreased from baseline) [1]: 41%
- MENQOL SUMMARY SCORE of the four domains, average % change from baseline to Week 12 (decreased from baseline) [1]: 24%**
- MENQOL Sexual desire (Q 27) severity score, average % change from baseline to Week 12 (decreased from baseline) [1]: 48%
- MENQOL Vaginal dryness during intercourse (Q28) severity score, average % change from baseline to Week 12 (decreased from baseline) [1]: 45%
- MENQOL SUMMARY SCORE of the four domains, average % change from baseline to Week 12 (decreased from baseline) (0.25% DHEA intravaginal daily 12 weeks, all subjects (ITT)): 24%**
- MENQOL SUMMARY SCORE of the four domains, average % change from baseline to Week 12 (decreased from baseline) (0.25% DHEA intravaginal daily 12 weeks, no MS pain at sexual activity at baseline): 25%*
- MENQOL Avoiding intimacy (Q 29) severity score, average % change from baseline to Week 12 (decreased from baseline) [2]: 43%
- MENQOL SUMMARY SCORE of the four domains, average % change from baseline to Week 12 (decreased from baseline) [2]: 19%
- MENQOL Sexual desire (Q 27) severity score, average % change from baseline to Week 12 (decreased from baseline) [2]: 36%
- MENQOL SUMMARY SCORE of the four domains, average % change from baseline to Week 12 (decreased from baseline) [3]: 18%
- MENQOL Sexual desire (Q 27) severity score, average % change from baseline to Week 12 (decreased from baseline) [3]: 31%
- MENQOL SUMMARY SCORE of the four domains, average % change from baseline to Week 12 (decreased from baseline) (0.5% DHEA intravaginal daily 12 weeks, no MS pain at sexual activity at baseline): 12%
- MENQOL SUMMARY SCORE of the four domains, average % change from baseline to Week 12 (decreased from baseline) (1.0% DHEA intravaginal daily 12 weeks, MS pain at sexual activity at baseline): 22%*
- MENQOL SUMMARY SCORE of the four domains, average % change from baseline to Week 12 (decreased from baseline) (1.0% DHEA intravaginal daily 12 weeks, all subjects (ITT)): 20%*
- MENQOL Avoiding intimacy (Q 29) severity score, average % change from baseline to Week 12 (decreased from baseline) [4]: 27%
- MENQOL SUMMARY SCORE of the four domains, average % change from baseline to Week 12 (decreased from baseline) [4]: 14%
- MENQOL Sexual desire (Q 27) severity score, average % change from baseline to Week 12 (decreased from baseline) [4]: 35%
- Changes over placebo, sum of the three questions of the MENQOL sexual function domain (MS pain group): 62.8%
- Specific (above placebo) effect in MENQOL, global increase over placebo (MS pain group): 0.78 fold
- MENQOL sexual domain, average percentage of change from baseline, percentages of the three DHEA doses combined (MS pain group): 49.0%
- MENQOL Avoiding intimacy (Q 29) severity score, average % change from baseline to Week 12 (decreased from baseline) [5]: 46.4%*
- MENQOL SUMMARY SCORE of the four domains, average % change from baseline to Week 12 (decreased from baseline) [5]: 21.4%*
- MENQOL Sexual desire (Q 27) severity score, average % change from baseline to Week 12 (decreased from baseline) [5]: 45.0%
- MENQOL Sexual domain severity score, average % change from baseline to Week 12 (decreased from baseline) [5]: 48.4%**
- MENQOL Vaginal dryness during intercourse (Q28) severity score, average % change from baseline to Week 12 (decreased from baseline) [5]: 52.4%**
- MENQOL Avoiding intimacy (Q 29) severity score, average % change from baseline to Week 12 (decreased from baseline) [6]: 46.4%
- MENQOL SUMMARY SCORE of the four domains, average % change from baseline to Week 12 (decreased from baseline) [6]: 21.4%
- MENQOL Sexual desire (Q 27) severity score, average % change from baseline to Week 12 (decreased from baseline) [6]: 45%
- MENQOL Sexual domain severity score, average % change from baseline to Week 12 (decreased from baseline) [6]: 48.4%
- MENQOL Vaginal dryness during intercourse (Q28) severity score, average % change from baseline to Week 12 (decreased from baseline) [6]: 52.4%
- MENQOL Avoiding intimacy (Q 29) severity score, average % change from baseline to Week 12 (decreased from baseline) [7]: 44.8%**
- MENQOL SUMMARY SCORE of the four domains, average % change from baseline to Week 12 (decreased from baseline) [7]: 20.8%**
- MENQOL Sexual desire (Q 27) severity score, average % change from baseline to Week 12 (decreased from baseline) [7]: 44.0%**
- MENQOL Sexual domain severity score, average % change from baseline to Week 12 (decreased from baseline) [7]: 46.7%**
- MENQOL Vaginal dryness during intercourse (Q28) severity score, average % change from baseline to Week 12 (decreased from baseline) [7]: 49.9%**
- MENQOL Avoiding intimacy (Q 29) severity score, average % change from baseline to Week 12 (decreased from baseline) [8]: 44.8%
- MENQOL SUMMARY SCORE of the four domains, average % change from baseline to Week 12 (decreased from baseline) [8]: 20.8%
- MENQOL Sexual desire (Q 27) severity score, average % change from baseline to Week 12 (decreased from baseline) [8]: 44%
- MENQOL Sexual domain severity score, average % change from baseline to Week 12 (decreased from baseline) [8]: 46.7%
- MENQOL Vaginal dryness during intercourse (Q28) severity score, average % change from baseline to Week 12 (decreased from baseline) [8]: 49.9%
- MENQOL Avoiding intimacy (Q 29) severity score, average % change from baseline to Week 12 (decreased from baseline) [9]: 36.6%*
- MENQOL SUMMARY SCORE of the four domains, average % change from baseline to Week 12 (decreased from baseline) [9]: 18.0%*
- MENQOL Sexual desire (Q 27) severity score, average % change from baseline to Week 12 (decreased from baseline) [9]: 40.2%**
- MENQOL Sexual domain severity score, average % change from baseline to Week 12 (decreased from baseline) [9]: 39.2%**
- MENQOL Vaginal dryness during intercourse (Q28) severity score, average % change from baseline to Week 12 (decreased from baseline) [9]: 38.2%**
- MENQOL Avoiding intimacy (Q 29) severity score, average % change from baseline to Week 12 (decreased from baseline) [10]: 36.6%
- MENQOL SUMMARY SCORE of the four domains, average % change from baseline to Week 12 (decreased from baseline) [10]: 18%
- MENQOL Sexual desire (Q 27) severity score, average % change from baseline to Week 12 (decreased from baseline) [10]: 40.2%
- MENQOL Sexual domain severity score, average % change from baseline to Week 12 (decreased from baseline) [10]: 39.2%
- MENQOL Vaginal dryness during intercourse (Q28) severity score, average % change from baseline to Week 12 (decreased from baseline) [10]: 38.2%
- MENQOL Avoiding intimacy, average % change from baseline to Week 12 in severity score over placebo (MS PAIN at baseline): 21.4%*
- MENQOL Sexual desire, average % change from baseline to Week 12 in severity score over placebo (MS PAIN at baseline): 18.0%
- MENQOL Vaginal dryness at sexual activity, average % change from baseline to Week 12 in severity score over placebo (MS PAIN at baseline): 23.4%**
- MENQOL Avoiding intimacy, average % change from baseline to Week 12 in severity score over placebo (NO MS PAIN at baseline): 27.4%*
- MENQOL Sexual desire, average % change from baseline to Week 12 in severity score over placebo (NO MS PAIN at baseline): 34.1%**
- MENQOL Vaginal dryness at sexual activity, average % change from baseline to Week 12 in severity score over placebo (NO MS PAIN at baseline): 38.2%**
- MENQOL Avoiding intimacy, average % change from baseline to Week 12 in severity score over placebo (TOTAL (all women)): 22.8%**
- MENQOL Sexual desire, average % change from baseline to Week 12 in severity score over placebo (TOTAL (all women)): 22.0%**
- MENQOL Vaginal dryness at sexual activity, average % change from baseline to Week 12 in severity score over placebo (TOTAL (all women)): 26.9%**
- Changes over placebo, sum of the three questions of the MENQOL sexual function domain (no MS pain group): 99.7%
- Specific (above placebo) effect in MENQOL, global increase over placebo (non MS pain group): 5.5 fold
- MENQOL sexual domain, average percentage of change from baseline, percentages of the three DHEA doses combined (non MS pain group): 33.3%
- Higher specificity of correction of sexual dysfunction (over placebo), MENQOL (women with no MS pain versus MS pain at baseline): 6.8 fold
